The values that follow come from paper doi:10.1101/2023.03.24.534094v2 (biorxiv, 2023).

One assay addresses T1, MST1 (Homo sapiens, UniProt Q13043).
T1 sequence (Q13043 1-487): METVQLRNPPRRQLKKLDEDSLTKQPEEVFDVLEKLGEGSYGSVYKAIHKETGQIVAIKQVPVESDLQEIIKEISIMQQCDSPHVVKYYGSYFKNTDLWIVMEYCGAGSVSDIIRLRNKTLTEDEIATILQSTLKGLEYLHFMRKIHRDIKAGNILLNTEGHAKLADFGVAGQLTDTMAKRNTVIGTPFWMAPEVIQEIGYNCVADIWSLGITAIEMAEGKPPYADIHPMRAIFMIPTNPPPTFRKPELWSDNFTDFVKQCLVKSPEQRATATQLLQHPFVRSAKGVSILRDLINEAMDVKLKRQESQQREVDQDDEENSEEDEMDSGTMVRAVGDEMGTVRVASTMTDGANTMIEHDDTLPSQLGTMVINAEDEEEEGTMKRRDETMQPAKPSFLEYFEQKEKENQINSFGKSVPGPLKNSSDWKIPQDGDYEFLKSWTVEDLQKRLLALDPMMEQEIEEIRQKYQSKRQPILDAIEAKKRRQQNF
The assay is described as follows: biochemical. The conditions noted are these: for ΔTm at 10 µM: read-out: dTm MST1.

A further assay addresses T2, MST2 (Homo sapiens, UniProt Q13188).
T2 sequence (Q13188 1-491): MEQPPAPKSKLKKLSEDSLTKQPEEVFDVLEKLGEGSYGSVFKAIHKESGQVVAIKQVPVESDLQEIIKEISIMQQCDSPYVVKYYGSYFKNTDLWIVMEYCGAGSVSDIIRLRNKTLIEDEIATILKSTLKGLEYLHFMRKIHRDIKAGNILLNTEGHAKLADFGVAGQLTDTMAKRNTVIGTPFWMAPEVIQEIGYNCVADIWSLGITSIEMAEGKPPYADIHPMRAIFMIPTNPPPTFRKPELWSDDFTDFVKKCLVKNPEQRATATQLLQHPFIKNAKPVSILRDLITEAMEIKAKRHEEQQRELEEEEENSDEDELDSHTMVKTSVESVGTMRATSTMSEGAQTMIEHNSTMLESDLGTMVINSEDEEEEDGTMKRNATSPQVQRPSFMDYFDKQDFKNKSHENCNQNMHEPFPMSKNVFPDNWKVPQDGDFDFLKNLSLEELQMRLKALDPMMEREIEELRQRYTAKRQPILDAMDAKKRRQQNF
The assay is described as follows: biochemical. The conditions noted are these: for ΔTm at 10 µM: read-out: dTm MST2.

The next assay addresses SIK3 (Homo sapiens, UniProt Q9Y2K2). In words: NanoBRET target engagement. The note with it: intact mode, HEK293T, 37 °C, 2 h, tracer displacement. In kind it is cell-based. (In general: Bioluminescence resonance energy transfer reports proximity on the nanometre scale.)
A further assay has as its target T3, EpHB4 (Homo sapiens, UniProt P54760).
T3 sequence (P54760 16-987): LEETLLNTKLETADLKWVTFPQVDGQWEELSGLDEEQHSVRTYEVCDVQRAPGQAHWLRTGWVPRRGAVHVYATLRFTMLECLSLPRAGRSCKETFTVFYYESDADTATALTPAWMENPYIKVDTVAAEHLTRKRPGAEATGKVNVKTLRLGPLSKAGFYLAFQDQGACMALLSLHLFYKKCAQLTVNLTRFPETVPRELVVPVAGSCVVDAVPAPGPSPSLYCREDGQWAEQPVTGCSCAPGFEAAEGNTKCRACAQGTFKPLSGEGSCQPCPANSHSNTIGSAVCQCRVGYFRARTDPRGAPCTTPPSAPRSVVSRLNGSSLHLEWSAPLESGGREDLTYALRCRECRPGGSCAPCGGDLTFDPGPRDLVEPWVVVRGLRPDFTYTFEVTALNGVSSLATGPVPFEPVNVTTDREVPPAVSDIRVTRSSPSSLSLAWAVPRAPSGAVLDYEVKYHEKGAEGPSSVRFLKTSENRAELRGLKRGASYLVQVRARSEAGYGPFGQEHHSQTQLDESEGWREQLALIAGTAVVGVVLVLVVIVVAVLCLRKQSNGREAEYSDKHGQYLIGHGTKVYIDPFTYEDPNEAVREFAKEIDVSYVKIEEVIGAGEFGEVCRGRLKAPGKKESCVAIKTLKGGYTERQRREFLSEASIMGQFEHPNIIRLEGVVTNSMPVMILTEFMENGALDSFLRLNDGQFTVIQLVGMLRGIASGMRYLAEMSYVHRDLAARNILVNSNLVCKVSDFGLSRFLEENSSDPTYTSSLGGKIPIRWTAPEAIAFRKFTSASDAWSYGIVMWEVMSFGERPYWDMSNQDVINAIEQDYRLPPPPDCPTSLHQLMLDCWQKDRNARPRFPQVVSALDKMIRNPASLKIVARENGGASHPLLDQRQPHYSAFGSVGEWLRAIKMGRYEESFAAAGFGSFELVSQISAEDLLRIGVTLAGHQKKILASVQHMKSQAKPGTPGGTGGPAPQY
The assay is described as follows: NanoBRET target engagement. In kind it is cell-based.

The next assay concerns the target SIK1 (Homo sapiens, UniProt P57059). The assay is described as follows: NanoBRET target engagement. In kind it is biochemical. The note with it: lysed mode, HEK293T, tracer displacement.
The target of another assay is MST4 (Homo sapiens, UniProt Q9P289). The assay is described as follows: biochemical. The note with it: for ΔTm at 10 µM: read-out: dTm MST4.
Chain of MST4 (Q9P289 whole entry): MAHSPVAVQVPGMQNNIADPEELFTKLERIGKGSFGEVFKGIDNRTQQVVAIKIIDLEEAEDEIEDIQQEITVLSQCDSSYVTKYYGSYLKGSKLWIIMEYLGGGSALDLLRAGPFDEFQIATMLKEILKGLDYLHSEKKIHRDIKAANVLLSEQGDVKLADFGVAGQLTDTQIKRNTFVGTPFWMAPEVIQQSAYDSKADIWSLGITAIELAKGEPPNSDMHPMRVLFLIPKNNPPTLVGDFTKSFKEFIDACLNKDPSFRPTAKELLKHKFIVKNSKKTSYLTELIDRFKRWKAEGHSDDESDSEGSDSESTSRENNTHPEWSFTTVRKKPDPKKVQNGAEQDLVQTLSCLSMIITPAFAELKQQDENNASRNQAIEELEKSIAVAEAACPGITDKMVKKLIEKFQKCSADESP
The target of another assay is SIK2 (Homo sapiens, UniProt Q9H0K1). The assay is described as follows: NanoBRET target engagement. In kind it is cell-based. The note with it: intact mode, HEK293T, 37 °C, 2 h, tracer displacement.
A further assay addresses BRD4 (Homo sapiens, UniProt O60885). In words: biochemical.
The next assay deals with FGFR2 (Homo sapiens, UniProt P21802). The assay is described as follows: biochemical.
Chain of FGFR2 (P21802 whole entry): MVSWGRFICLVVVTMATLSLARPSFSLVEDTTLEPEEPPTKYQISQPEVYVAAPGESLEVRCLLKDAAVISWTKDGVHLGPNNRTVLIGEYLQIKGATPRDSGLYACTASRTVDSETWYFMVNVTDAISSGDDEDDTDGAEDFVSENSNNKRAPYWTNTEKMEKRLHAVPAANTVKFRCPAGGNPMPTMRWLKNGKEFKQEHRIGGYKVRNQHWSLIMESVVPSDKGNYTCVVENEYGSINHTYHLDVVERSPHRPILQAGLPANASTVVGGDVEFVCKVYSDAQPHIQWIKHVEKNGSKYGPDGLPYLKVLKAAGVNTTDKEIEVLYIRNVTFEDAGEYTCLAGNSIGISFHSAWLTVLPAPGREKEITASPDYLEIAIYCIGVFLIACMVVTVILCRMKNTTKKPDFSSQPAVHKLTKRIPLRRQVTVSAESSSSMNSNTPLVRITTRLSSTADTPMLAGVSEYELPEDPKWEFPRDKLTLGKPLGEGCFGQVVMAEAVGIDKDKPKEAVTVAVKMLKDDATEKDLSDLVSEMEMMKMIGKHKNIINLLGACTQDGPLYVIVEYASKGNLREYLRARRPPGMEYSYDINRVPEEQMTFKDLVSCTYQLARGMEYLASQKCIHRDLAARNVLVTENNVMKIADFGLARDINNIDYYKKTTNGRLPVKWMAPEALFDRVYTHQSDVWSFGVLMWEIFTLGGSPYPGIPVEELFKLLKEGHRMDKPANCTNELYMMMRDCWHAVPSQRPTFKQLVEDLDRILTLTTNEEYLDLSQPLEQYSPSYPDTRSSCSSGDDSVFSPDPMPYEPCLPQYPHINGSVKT
Another assay deals with PAK1 (Homo sapiens, UniProt Q13153). In words: biochemical.
Chain of PAK1 (Q13153 whole entry): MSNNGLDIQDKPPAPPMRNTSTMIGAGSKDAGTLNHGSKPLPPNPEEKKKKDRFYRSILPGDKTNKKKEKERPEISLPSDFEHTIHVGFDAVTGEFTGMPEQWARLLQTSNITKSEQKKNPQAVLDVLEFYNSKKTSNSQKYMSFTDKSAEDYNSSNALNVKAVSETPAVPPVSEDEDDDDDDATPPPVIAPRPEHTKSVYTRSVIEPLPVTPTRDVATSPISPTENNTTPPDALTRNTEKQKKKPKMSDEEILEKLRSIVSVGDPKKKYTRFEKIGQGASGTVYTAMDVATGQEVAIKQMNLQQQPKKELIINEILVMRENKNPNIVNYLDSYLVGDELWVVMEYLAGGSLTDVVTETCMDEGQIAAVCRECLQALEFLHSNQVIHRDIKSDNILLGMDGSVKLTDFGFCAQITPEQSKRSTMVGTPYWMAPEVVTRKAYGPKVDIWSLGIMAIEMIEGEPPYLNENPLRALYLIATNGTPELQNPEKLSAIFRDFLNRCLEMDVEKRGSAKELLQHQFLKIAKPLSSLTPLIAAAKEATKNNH
Another assay deals with MST3 (Homo sapiens, UniProt Q9Y6E0). In words: biochemical.
Chain of MST3 (Q9Y6E0 whole entry): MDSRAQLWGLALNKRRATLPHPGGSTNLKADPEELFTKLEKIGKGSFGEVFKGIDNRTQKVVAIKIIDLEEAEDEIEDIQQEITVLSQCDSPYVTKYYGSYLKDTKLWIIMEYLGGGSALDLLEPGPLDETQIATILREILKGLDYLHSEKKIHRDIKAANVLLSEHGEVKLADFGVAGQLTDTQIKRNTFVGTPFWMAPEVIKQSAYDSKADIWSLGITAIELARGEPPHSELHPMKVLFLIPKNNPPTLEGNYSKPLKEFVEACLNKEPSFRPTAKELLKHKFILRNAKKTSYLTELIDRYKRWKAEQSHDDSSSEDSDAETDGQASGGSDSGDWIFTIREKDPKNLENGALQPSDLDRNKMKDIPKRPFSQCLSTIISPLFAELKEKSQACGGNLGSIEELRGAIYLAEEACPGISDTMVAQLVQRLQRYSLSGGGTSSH

Read-outs that look alike come from different tables or passages of the source.

Chain of SIK1 (P57059 whole entry): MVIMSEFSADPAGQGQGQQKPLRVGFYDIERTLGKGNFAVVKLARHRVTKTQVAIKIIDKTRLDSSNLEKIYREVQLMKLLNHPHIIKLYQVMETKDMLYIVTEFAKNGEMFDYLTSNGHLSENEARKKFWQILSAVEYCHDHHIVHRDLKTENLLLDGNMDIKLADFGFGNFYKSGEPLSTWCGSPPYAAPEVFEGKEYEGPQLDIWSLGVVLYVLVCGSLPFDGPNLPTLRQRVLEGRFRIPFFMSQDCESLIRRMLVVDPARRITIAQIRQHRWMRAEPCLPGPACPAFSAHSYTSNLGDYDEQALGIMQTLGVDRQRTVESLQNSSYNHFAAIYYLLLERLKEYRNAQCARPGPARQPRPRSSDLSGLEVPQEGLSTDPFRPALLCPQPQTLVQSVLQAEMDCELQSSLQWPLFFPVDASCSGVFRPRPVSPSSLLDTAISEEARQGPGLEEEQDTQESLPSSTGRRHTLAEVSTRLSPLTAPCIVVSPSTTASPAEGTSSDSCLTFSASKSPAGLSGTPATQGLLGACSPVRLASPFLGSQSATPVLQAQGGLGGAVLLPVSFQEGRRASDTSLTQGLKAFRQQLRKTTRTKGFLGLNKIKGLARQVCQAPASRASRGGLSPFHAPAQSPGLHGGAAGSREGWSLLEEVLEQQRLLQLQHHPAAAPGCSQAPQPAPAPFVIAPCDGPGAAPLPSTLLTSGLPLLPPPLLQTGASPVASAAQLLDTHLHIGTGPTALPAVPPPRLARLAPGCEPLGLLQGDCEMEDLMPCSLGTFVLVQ
Chain of SIK3 (Q9Y2K2 whole entry): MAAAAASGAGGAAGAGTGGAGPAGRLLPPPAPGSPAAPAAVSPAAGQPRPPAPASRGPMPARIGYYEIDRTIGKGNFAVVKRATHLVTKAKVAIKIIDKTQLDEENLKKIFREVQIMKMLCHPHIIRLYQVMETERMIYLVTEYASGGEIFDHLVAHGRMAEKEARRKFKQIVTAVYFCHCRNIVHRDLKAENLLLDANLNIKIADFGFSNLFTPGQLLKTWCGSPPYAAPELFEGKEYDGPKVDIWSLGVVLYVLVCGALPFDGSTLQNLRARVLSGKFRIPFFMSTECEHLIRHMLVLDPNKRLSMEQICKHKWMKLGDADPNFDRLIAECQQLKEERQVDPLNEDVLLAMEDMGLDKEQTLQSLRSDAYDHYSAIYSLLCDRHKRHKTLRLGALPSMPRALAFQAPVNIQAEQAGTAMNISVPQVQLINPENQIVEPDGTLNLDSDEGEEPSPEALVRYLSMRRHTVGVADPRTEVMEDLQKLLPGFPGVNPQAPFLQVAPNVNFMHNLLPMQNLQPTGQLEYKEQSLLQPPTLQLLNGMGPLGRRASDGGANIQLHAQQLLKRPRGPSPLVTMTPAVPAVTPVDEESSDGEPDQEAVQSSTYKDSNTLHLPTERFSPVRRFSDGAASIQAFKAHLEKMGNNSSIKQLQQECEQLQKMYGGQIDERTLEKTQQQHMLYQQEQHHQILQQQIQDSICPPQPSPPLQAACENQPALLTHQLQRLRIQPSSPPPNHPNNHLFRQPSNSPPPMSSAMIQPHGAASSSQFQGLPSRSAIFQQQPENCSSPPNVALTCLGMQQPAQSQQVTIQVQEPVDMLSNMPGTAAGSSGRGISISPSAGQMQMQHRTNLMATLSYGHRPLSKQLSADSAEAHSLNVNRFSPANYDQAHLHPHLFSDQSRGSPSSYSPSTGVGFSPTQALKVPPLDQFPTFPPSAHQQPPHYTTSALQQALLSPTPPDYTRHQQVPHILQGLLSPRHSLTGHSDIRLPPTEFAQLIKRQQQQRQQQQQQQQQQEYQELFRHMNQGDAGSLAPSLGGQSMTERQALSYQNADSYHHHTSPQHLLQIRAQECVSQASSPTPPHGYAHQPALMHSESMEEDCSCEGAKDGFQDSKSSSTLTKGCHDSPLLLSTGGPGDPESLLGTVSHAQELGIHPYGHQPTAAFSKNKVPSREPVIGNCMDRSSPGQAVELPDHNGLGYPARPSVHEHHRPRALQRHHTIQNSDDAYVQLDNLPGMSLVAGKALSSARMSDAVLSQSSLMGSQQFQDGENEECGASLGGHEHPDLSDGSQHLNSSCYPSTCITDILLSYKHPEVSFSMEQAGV

In general, IC50 refers to the concentration at which inhibition is half-maximal. For `CNc1ncc2cc(-c3ccccc3Cl)c(=O)n(CCCCN)c2n1` [compound 4, 8-(4-Aminobutyl)-6-(2-chlorophenyl)-2-(methylamino)pyrido[2,3-d]pyrimidin-7(8H)-one], the ΔTm at 10 µM amounted to 1.9 °C at MST1; 2.2 °C at MST2; 2.6 °C at MST4; 0.1 °C at BRD4 (read-out: dTm MR21 (4)); 4.7 °C on FGFR2 (read-out: dTm MR21 (4)). Also, the IC50 was 25 ± 3 nM at SIK3, 50 ± 12 nM on EpHB4, 20 ± 7 nM at SIK1 and 74 ± 2 nM at SIK2.
For the compound `CNc1ncc2cc(-c3cc(Cl)ccc3Cl)c(=O)n(CCCCN)c2n1` [compound 8, 8-(4-Aminobutyl)-6-(2,5-dichlorophenyl)-2-(methylamino)pyrido[2,3-d]pyrimidin-7(8H)-one], the ΔTm at 10 µM at MST1 is 1.6 °C; at PAK1 (read-out: ∆Tm 8) it was 0.7 °C; on MST3 (read-out: ∆Tm 8), 1.9 °C; on MST2 it was 1.4 °C; at MST4, 2 °C. Besides, the IC50 came to 113 ± 95 nM at SIK3, 188 ± 17 nM against EpHB4, 277 ± 123 nM on SIK1 and 665 ± 40 nM on SIK2.
For `CNc1ncc2cc(-c3cc(Br)ccc3Cl)c(=O)n(CCCCN)c2n1` [compound 6, 8-(4-Aminobutyl)-6-(5-bromo-2-chlorophenyl)-2-(methylamino)pyrido[2,3-d]pyrimidin-7(8H)-one], the ΔTm at 10 µM at MST1 is 1.9 °C; at MST2 it was 2.5 °C; at MST4, 2.2 °C; on BRD4 (read-out: dTm 6), -0.1 °C; on FGFR2 (read-out: dTm 6), 4.1 °C. Moreover, the half-inhibitory concentration (IC50) came to 352 ± 11 nM at SIK3, 239 ± 46 nM at SIK1 and 1400 ± 100 nM at SIK2.
Regarding `CNc1ncc2cc(-c3ccc(-c4cccc(C)n4)cc3Cl)c(=O)n(CC3OCC(N)CO3)c2n1` (stereo not shown) [compound 2, G-5555], the “dTm MST1” value at MST1 (10 µM, binder) was 4.2 °C. Moreover, on MST2 (10 µM, binder), the “dTm MST2” value turned out to be 5.0 °C. In addition, at MST4 (10 µM, binder), the “dTm MST4” value was found to be 6.4 °C. Further, the “dTm G-5555 (2)” value at BRD4 (10 µM, binder) was -1.1 °C; at FGFR2 (10 µM, binder), 0.7 °C.
On to `CNc1ncc2cc(-c3cc(Cl)ccc3Br)c(=O)n(CCCCN)c2n1` [compound 10, 8-(4-Aminobutyl)-6-(2-bromo-5-chlorophenyl)-2-(methylamino)pyrido[2,3-d]pyrimidin-7(8H)-one], for which the ΔTm at 10 µM worked out at 1.5 °C on MST1; 0.6 °C on PAK1 (read-out: ∆Tm 10); 2 °C on MST3 (read-out: ∆Tm 10); 1.4 °C on MST2; 1.8 °C on MST4. The IC50 on SIK3 came out at 290 ± 42 nM; at SIK1, 228 ± 142 nM; at SIK2, 1100 ± 100 nM.
`CNc1ncc2cc(-c3cc(F)ccc3F)c(=O)n(CCCCN)c2n1` [compound 5, 8-(4-Aminobutyl)-6-(2,5-difluorophenyl)-2-(methylamino)pyrido[2,3-d]pyrimidin-7(8H)-one]: the ΔTm at 10 µM on MST1 is 0.9 °C; on MST2, 0.6 °C; at MST4, 0.9 °C; on BRD4 (read-out: dTm MR22 (5)) it was -2.8 °C; at FGFR2 (read-out: dTm MR22 (5)), 3.7 °C. Besides, the IC50 at SIK3 stood at 18 ± 2 nM; on EpHB4 (intact mode, HEK293T, 37 °C, 2 h, tracer displacement), 607 ± 37 nM; on SIK1 it was 72 ± 11 nM; on SIK2 it was 89 ± 2 nM.
On to `CNc1ncc2cc(-c3cc(Br)ccc3Br)c(=O)n(CCCCN)c2n1` [compound 11, 8-(4-Aminobutyl)-6-(2,5-dibromophenyl)-2-(methylamino)pyrido[2,3-d]pyrimidin-7(8H)-one], for which the ΔTm at 10 µM at MST1 was found to be 1.6 °C; on PAK1 (read-out: ∆Tm 11), 0.7 °C; at MST3 (read-out: ∆Tm 11) it was 1.9 °C; at MST2, 1.4 °C; at MST4, 1.5 °C. For the same compound, the concentration for half-maximal inhibition (IC50) on SIK3 stood at 1200 ± 100 nM; on SIK1, 429 ± 117 nM; at SIK2, 2700 ± 100 nM.
For the compound `CNc1ncc2cc(-c3cc(Br)ccc3Cl)c(=O)n(C[C@H]3OC[C@H](N)CO3)c2n1` [compound 7, 8-(((2r,5r)-5-Amino-1,3-dioxan-2-yl)methyl)-6-(5-bromo-2-chlorophenyl)-2-(methylamino)pyrido[2,3-d]pyrimidin-7(8H)-one], the ΔTm at 10 µM was 1.7 °C at MST1; 1.5 °C on MST2; 0.6 °C at MST4; 0.9 °C on BRD4 (read-out: dTm 7); 3.7 °C on FGFR2 (read-out: dTm 7). Also, the IC50 is 1000 ± 300 nM on SIK3, 2400 ± 1100 nM on SIK1 and 4400 ± 100 nM on SIK2.
`CNc1ncc2cc(-c3cc(C(F)(F)F)ccc3Cl)c(=O)n(CCCCN)c2n1` [compound 9, 8-(4-Aminobutyl)-6-(2-chloro-5-(trifluoromethyl)phenyl)-2-(methylamino)pyrido[2,3-d]pyrimidin-7(8H)-one]: the ΔTm at 10 µM on MST1 worked out at 0.9 °C; on MST2 it was 0.8 °C; on MST4, 0.4 °C. Further, the half-maximal inhibitory concentration (IC50) was found to be 2500 ± 100 nM at SIK3, 1000 ± 400 nM on SIK1 and 6100 ± 100 nM on SIK2.
With `CNc1ncc2cc(-c3cc(F)c(-c4cccc(C)n4)cc3F)c(=O)n(CCCCN)c2n1` [compound 12, 8-(4-Aminobutyl)-6-(2,5-difluoro-4-(6-methylpyridin-2-yl)phenyl)-2-(methylamino)pyrido[2,3-d]pyrimidin-7(8H)-one], the values for the ΔTm at 10 µM on MST1, on MST2 and on MST4 were 2.8 °C, 5.2 °C and 7.6 °C, respectively. The IC50 on SIK3 came out at 4 ± 0.1 nM; at SIK1, 6 ± 2 nM; at SIK2, 31 ± 1 nM.
